In ChEMBL document CHEMBL5505995, “Discovery of novel urea derivatives as ferroptosis and autophagy inducer for human colon cancer treatment” (Eur J Med Chem, 2024):
Activity calls are given as the source filed them.

Assays:
HepG2 = test: Antiproliferative activity against human HepG2 cells assessed as inhibition of cell growth incubated for 48 hrs by MTT assay; format: functional, cell-based; details: HepG2, 48 h
HT-29 [1] = test: Induction of cell cycle arrest in human HT-29 cells assessed as accumulation of cells at G2/M phase incubated for 48 hrs by propidium iodide staining based flow cytometric analysis; format: functional
HT-29 [2] = test: Induction of cell cycle arrest in human HT-29 cells assessed as […] of CDK1 expression at 0.5 to 4 uM incubated for 48 hrs by Western blotting analysis; format: functional, cell-based; details: dose 0.5-4 µM
HT-29 [3] = test: Induction of cell death in human HT-29 cells incubated for 48 hrs in presence of ferroptosis inhibitor CPX by MTT assay; format: functional, cell-based
HT-29 [4] = test: Induction of ferroptosis in human HT-29 cells assessed as decrease in intracellular GSH level at 1 to 4 uM incubated for 48 hrs; format: functional, cell-based; details: dose 1-4 µM
HT-29 [5] = test: Induction of ferroptosis in human HT-29 cells assessed as increase in intracellular iron level incubated for 48 hrs in presence of ferroptosis inhibitor CPX; format: functional, cell-based
HT-29 [6] = test: Induction of ferroptosis in human HT-29 cells assessed as increase in intracellular malondialdehyde accumulation incubated for 48 hrs in presence of ferroptosis inhibitor CPX; format: functional, cell-based
HT-29 [7] = test: Induction of ferroptosis in human HT-29 cells assessed as mitochondrial morphological change incubated for 48 hrs by transmission electron microscopic analysis; format: functional, cell-based
HT-29 [8] = test: Induction of ferroptosis in human HT-29 cells assessed as fusion of mitochondrial cristae incubated for 48 hrs by transmission electron microscopic analysis; format: functional, cell-based
HT-29 [9] = test: Induction of ferroptosis in human HT-29 cells assessed as fusion of mitochondrial cristae incubated for 48 hrs in presence of ferroptosis inhibitor deferoxamine by transmission electron microscopic analysis; format: functional, cell-based
HT-29 [10] = test: Induction of ferroptosis in human HT-29 cells assessed as increase in mitochondrial membrane density incubated for 48 hrs in presence of ferroptosis inhibitor deferoxamine by transmission electron microscopic analysis; format: functional, cell-based
HT-29 [11] = test: Induction of autophagy in human HT-29 cells assessed as upregulation of ATG7 protein expression incubated for 48 hrs by Western blotting analysis; format: functional, cell-based
HT-29 [12] = test: Antiproliferative activity against human HT-29 cells assessed as inhibition of cell growth incubated for 48 hrs in presence of autophagy inhibitor 3-methyladenine by MTT assay; format: functional, cell-based
HT-29 [13] = test: Induction of ferroptosis in human HT-29 cells assessed as decrease in GPx level incubated for 48 hrs in presence of autophagy inhibitor 3-methyladenine; format: functional, cell-based
HT-29 [14] = test: Induction of ferroptosis in human HT-29 cells assessed as decrease in intracellular GSH level incubated for 48 hrs in presence of autophagy inhibitor 3-methyladenine; format: functional, cell-based
HT-29 [15] = test: Induction of ferroptosis in human HT-29 cells assessed as increase in intracellular iron level incubated for 48 hrs in presence of ROS scavenger NAC; format: functional, cell-based
HT-29 [16] = test: Induction of ferroptosis in human HT-29 cells assessed as increase in intracellular malondialdehyde accumulation incubated for 48 hrs in presence of ROS scavenger NAC; format: functional, cell-based
HT-29 [17] = test: Antiproliferative activity against human HT-29 cells assessed as inhibition of cell growth at 1 to 10 uM incubated for 48 hrs by MTT assay; format: functional, cell-based; details: dose 1-10 µM

COc1ccc2c(c1)NCCN2C(=O)NCCCl
inactive: Activity (HT-29 [3]) | Activity (HT-29 [5]) | Activity (HT-29 [6]) | Activity (HT-29 [9]) | Activity (HT-29 [10]) | Activity (HT-29 [12]) | Activity (HT-29 [15]) | Activity (HT-29 [16])
active: Activity (HT-29 [1]) Dose-Dependent Effect | Activity (HT-29 [2]) | Activity (HT-29 [4]) | Activity (HT-29 [7]) | Activity (HT-29 [8]) | Activity (HT-29 [11]) Dose-Dependent Effect | Activity (HT-29 [13]) | Activity (HT-29 [14]) | Activity (HT-29 [17])
13.8 µM: IC50 (HepG2)
